Several values for one entry are separate records, joined by “and”; a condition that tells them apart may be missing. Equal entries are not always repeated.
How the values were obtained:
[1] = system: PRMT5 expression in CLL cells; experiment: PRMT5 mRNA and protein expression in CpG-stimulated CLL cells upon BRD4 inhibition; format: cell-based, human
[2] = system: BRD4 occupancy at the PRMT5 locus; experiment: ChIP-seq of H3K27Ac and BRD4 binding at the PRMT5 locus; format: cell-based; settings: vehicle, CpG, or PLX51107 treatment
PRMT5 in Mec-1 cell line = experiment: Cas9-mediated doxycycline-inducible knockout of PRMT5, Mec-1 proliferation; format: cell-based; settings: +doxy
Excerpt: Proteins extracted from whole-cell lysates were resolved by SDS-PAGE and transferred on nitrocellulose membrane as previously described. CpG685 oligonucleotide was obtained from the OSU Cytogenetics Core Lab. Antibodies used for immunoblots included anti-human PRMT5 (Abcam #ab109451), GAPDH (Millipore Sigma #MAB374), SDMA (Cell Signaling Technology #13222), c-Myc (Cell Signaling Technology #5605S), and β-Actin (Cell Signaling Technology #4967S). Cas9-mediated doxycycline-inducible knockout of PRMT5 utilized a targeted sgRNA (guide sequence: […], PAM: GGG).

HG3 cells = experiment: Cell growth curves over 12 days, HG3; format: cell-based; settings: for anti-proliferative potency compared to PRT382: HG3
Description: (§1) Live cells/mL were counted on days 3, 6, 10, and 12. […] The split factor was calculated at indicated time points by dividing the counted cells/mL by 3E5. Cell growth was extrapolated over time by multiplying the subsequent cell count by the previous split factor. Cell growth is plotted as fold change relative to DMSO-treated cells.

Mec-1 cells = experiment: Cell growth curves over 12 days, Mec-1; format: cell-based; settings: for anti-proliferative potency compared to PRT382: Mec-1
Description: as §1

## Cc1noc(C)c1-c1cnc2c(-c3ccc(C(=O)O)cc3)cn([C@@H](C)c3ccccn3)c2c1 [PLX51107]
[1]; 72h 10µM PLX51107, CLL cells stimulated with 21.7 µg/mL CpG, n=5 patients
  PRMT5 protein expression: Reduced
[1]; 72h 10µM PLX51107, CLL cells stimulated with 21.7 µg/mL CpG, n=8 patients
  PRMT5 mRNA expression: Reduced
[1]; individual samples, Supplemental Figure 7C
  PRMT5 Relative Expression (2-ΔCt): 1.507 and 1.2928 and 1.349 and 0.5743 and 1.232 and 0.9553 and 1.659 and 0.935
[2]
  BRD4 occupancy at the PRMT5 locus enhancer: lost

## C[C@H]1c2cccc(O)c2C(O)=C2C(=O)[C@]3(O)C(O)=C(C(N)=O)C(=O)[C@@H](N(C)C)[C@@H]3[C@@H](O)[C@@H]21 [+doxy]
PRMT5 in Mec-1 cell line; 1 days treated
  Rep. 1 Live cells/mL: 170000 cells/mL
  Rep. 2 Live cells/mL: 158000 cells/mL
PRMT5 in Mec-1 cell line; 2 days treated
  Rep. 1 Live cells/mL: 387000 cells/mL
  Rep. 2 Live cells/mL: 352000 cells/mL
PRMT5 in Mec-1 cell line; 3 days treated
  Rep. 1 Live cells/mL: 686000 cells/mL
  Rep. 2 Live cells/mL: 721000 cells/mL
PRMT5 in Mec-1 cell line; 4 days treated
  Rep. 1 Live cells/mL: 991000 cells/mL
  Rep. 2 Live cells/mL: 944000 cells/mL
PRMT5 in Mec-1 cell line; 5 days treated
  Rep. 1 Live cells/mL: 827000 cells/mL
  Rep. 2 Live cells/mL: 862000 cells/mL
PRMT5 in Mec-1 cell line; 6 days treated
  Rep. 1 Live cells/mL: 1180000 cells/mL
  Rep. 2 Live cells/mL: 1280000 cells/mL

## Nc1nc2cc(CC[C@H]3C[C@@H](n4ccc5c(N)ncnc54)[C@H](O)[C@@H]3O)ccc2cc1Br [JNJ-64619178]
HG3 cells; HG3, 1 nM, day 0
  Rep 1 Live Cells [Fold Change]: 1 Fold Change
  Rep 2 Live Cells [Fold Change]: 1 Fold Change
HG3 cells; HG3, 1 nM, day 3
  Rep 1 Live Cells [Fold Change]: 6.233 Fold Change
  Rep 2 Live Cells [Fold Change]: 6.733 Fold Change
HG3 cells; HG3, 1 nM, day 6
  Rep 1 Live Cells [Fold Change]: 33.0367 Fold Change
  Rep 2 Live Cells [Fold Change]: 39.5022 Fold Change
HG3 cells; HG3, 1 nM, day 10
  Rep 1 Live Cells [Fold Change]: 290.723 Fold Change
  Rep 2 Live Cells [Fold Change]: 314.043 Fold Change
HG3 cells; HG3, 1 nM, day 12
  Rep 1 Live Cells [Fold Change]: 802.395 Fold Change
  Rep 2 Live Cells [Fold Change]: 1088.68 Fold Change
HG3 cells; HG3, 10 nM, day 0
  Rep 1 Live Cells [Fold Change]: 1 Fold Change
  Rep 2 Live Cells [Fold Change]: 1 Fold Change
HG3 cells; HG3, 10 nM, day 3
  Rep 1 Live Cells [Fold Change]: 4.733 Fold Change
  Rep 2 Live Cells [Fold Change]: 5.9 Fold Change
HG3 cells; HG3, 10 nM, day 6
  Rep 1 Live Cells [Fold Change]: 4.86 Fold Change
  Rep 2 Live Cells [Fold Change]: 7.375 Fold Change
HG3 cells; HG3, 10 nM, day 10
  Rep 1 Live Cells [Fold Change]: 4.276 Fold Change
  Rep 2 Live Cells [Fold Change]: 8.039 Fold Change
HG3 cells; HG3, 10 nM, day 12
  Rep 1 Live Cells [Fold Change]: 4.945 Fold Change
  Rep 2 Live Cells [Fold Change]: 8.633 Fold Change
HG3 cells; HG3, 100 nM, day 0
  Rep 1 Live Cells [Fold Change]: 1 Fold Change
  Rep 2 Live Cells [Fold Change]: 1 Fold Change
HG3 cells; HG3, 100 nM, day 3
  Rep 1 Live Cells [Fold Change]: 4.133 Fold Change
  Rep 2 Live Cells [Fold Change]: 5.6 Fold Change
HG3 cells; HG3, 100 nM, day 6
  Rep 1 Live Cells [Fold Change]: 4.064 Fold Change
  Rep 2 Live Cells [Fold Change]: 5.619 Fold Change
HG3 cells; HG3, 100 nM, day 10
  Rep 1 Live Cells [Fold Change]: 2.5 Fold Change
  Rep 2 Live Cells [Fold Change]: 4.6354 Fold Change
HG3 cells; HG3, 100 nM, day 12
  Rep 1 Live Cells [Fold Change]: 1.958 Fold Change
  Rep 2 Live Cells [Fold Change]: 5.387 Fold Change
HG3 cells; HG3, 1 µM, day 0
  Rep 1 Live Cells [Fold Change]: 1 Fold Change
  Rep 2 Live Cells [Fold Change]: 1 Fold Change
HG3 cells; HG3, 1 µM, day 3
  Rep 1 Live Cells [Fold Change]: 1.6 Fold Change
  Rep 2 Live Cells [Fold Change]: 2.303 Fold Change
HG3 cells; HG3, 1 µM, day 6
  Rep 1 Live Cells [Fold Change]: 1.024 Fold Change
  Rep 2 Live Cells [Fold Change]: 1.536 Fold Change
HG3 cells; HG3, 1 µM, day 10
  Rep 1 Live Cells [Fold Change]: 3.369 Fold Change
  Rep 2 Live Cells [Fold Change]: 0.4381 Fold Change
HG3 cells; HG3, 1 µM, day 12
  Rep 1 Live Cells [Fold Change]: 2.347 Fold Change
  Rep 2 Live Cells [Fold Change]: 3.411 Fold Change
HG3 cells; high doses (1µM)
  anti-proliferative potency compared to PRT382: similar
HG3 cells; lower doses (10nM, 100nM)
  anti-proliferative potency compared to PRT382: more potent
Mec-1 cells; Mec-1, 1 nM, day 0
  Rep 1 Live Cells [Fold Change]: 1 Fold Change
  Rep 2 Live Cells [Fold Change]: 1 Fold Change
Mec-1 cells; Mec-1, 1 nM, day 3
  Rep 1 Live Cells [Fold Change]: 6.73 Fold Change
  Rep 2 Live Cells [Fold Change]: 5.77 Fold Change
Mec-1 cells; Mec-1, 1 nM, day 6
  Rep 1 Live Cells [Fold Change]: 33.4 Fold Change
  Rep 2 Live Cells [Fold Change]: 34.4 Fold Change
Mec-1 cells; Mec-1, 1 nM, day 10
  Rep 1 Live Cells [Fold Change]: 194 Fold Change
  Rep 2 Live Cells [Fold Change]: 282 Fold Change
Mec-1 cells; Mec-1, 1 nM, day 12
  Rep 1 Live Cells [Fold Change]: 737 Fold Change
  Rep 2 Live Cells [Fold Change]: 940 Fold Change
Mec-1 cells; Mec-1, 10 nM, day 0
  Rep 1 Live Cells [Fold Change]: 1 Fold Change
  Rep 2 Live Cells [Fold Change]: 1 Fold Change
Mec-1 cells; Mec-1, 10 nM, day 3
  Rep 1 Live Cells [Fold Change]: 4.7 Fold Change
  Rep 2 Live Cells [Fold Change]: 4.73 Fold Change
Mec-1 cells; Mec-1, 10 nM, day 6
  Rep 1 Live Cells [Fold Change]: 4.72 Fold Change
  Rep 2 Live Cells [Fold Change]: 5.92 Fold Change
Mec-1 cells; Mec-1, 10 nM, day 10
  Rep 1 Live Cells [Fold Change]: 4.93 Fold Change
  Rep 2 Live Cells [Fold Change]: 4.62 Fold Change
Mec-1 cells; Mec-1, 10 nM, day 12
  Rep 1 Live Cells [Fold Change]: 3.86 Fold Change
  Rep 2 Live Cells [Fold Change]: 2.38 Fold Change
Mec-1 cells; Mec-1, 100 nM, day 0
  Rep 1 Live Cells [Fold Change]: 1 Fold Change
  Rep 2 Live Cells [Fold Change]: 1 Fold Change
Mec-1 cells; Mec-1, 100 nM, day 3
  Rep 1 Live Cells [Fold Change]: 4.17 Fold Change
  Rep 2 Live Cells [Fold Change]: 4.67 Fold Change
Mec-1 cells; Mec-1, 100 nM, day 6
  Rep 1 Live Cells [Fold Change]: 3.53 Fold Change
  Rep 2 Live Cells [Fold Change]: 4.53 Fold Change
Mec-1 cells; Mec-1, 100 nM, day 10
  Rep 1 Live Cells [Fold Change]: 2.56 Fold Change
  Rep 2 Live Cells [Fold Change]: 2.9 Fold Change
Mec-1 cells; Mec-1, 100 nM, day 12
  Rep 1 Live Cells [Fold Change]: 1.15 Fold Change
  Rep 2 Live Cells [Fold Change]: 1.27 Fold Change
Mec-1 cells; Mec-1, 1 µM, day 0
  Rep 1 Live Cells [Fold Change]: 1 Fold Change
  Rep 2 Live Cells [Fold Change]: 1 Fold Change
Mec-1 cells; Mec-1, 1 µM, day 3
  Rep 1 Live Cells [Fold Change]: 1.48 Fold Change
  Rep 2 Live Cells [Fold Change]: 1.38 Fold Change
Mec-1 cells; Mec-1, 1 µM, day 6
  Rep 1 Live Cells [Fold Change]: 0.841 Fold Change
  Rep 2 Live Cells [Fold Change]: 2.27 Fold Change
Mec-1 cells; Mec-1, 1 µM, day 10
  Rep 1 Live Cells [Fold Change]: 1.28 Fold Change
  Rep 2 Live Cells [Fold Change]: 1.57 Fold Change
Mec-1 cells; Mec-1, 1 µM, day 12
  Rep 1 Live Cells [Fold Change]: 0.808 Fold Change
  Rep 2 Live Cells [Fold Change]: 0.765 Fold Change
Mec-1 cells; high doses (1µM)
  anti-proliferative potency compared to PRT382: similar
Mec-1 cells; lower doses (10nM, 100nM)
  anti-proliferative potency compared to PRT382: more potent

— PMC9823097, “Dysregulation of PRMT5 in chronic lymphocytic leukemia promotes progression with high risk of Richter’s transformation” (Nature Communications, 2023)
